Read-outs that look alike come from different tables or passages of the source. Values belong to the compound of their own block, whether it stands above or below them.
Biological target: T1, 5-HT1 -like receptor (Oryctolagus cuniculus, UniProt P49144)
T1 construct: contraction of the saphenous vein of New Zealand White rabbits; from tissue; host or cells: saphenous vein of New Zealand White rabbits
Assay: agonist-mediated contraction of the saphenous vein of New Zealand White rabbits
Type: cell-based
Procedure: The activity of test compounds as agonists of the 5-HT1 -like receptor was measured in terms of their ability to mediate contraction of the saphenous vein of New Zealand White rabbits, using the procedure described in Arch. Pharm., 1990, 342, 111. Agonist potencies were calculated as -log10 EC50 (pEC50) values, from plots of percentage 5-HT (1 μm) response against the concentration of the agonist.

[1] = rabbit saphenous vein contraction, from plots of percentage 5-HT (1 μm) response against agonist concentration

T1 sequence (P49144 whole entry): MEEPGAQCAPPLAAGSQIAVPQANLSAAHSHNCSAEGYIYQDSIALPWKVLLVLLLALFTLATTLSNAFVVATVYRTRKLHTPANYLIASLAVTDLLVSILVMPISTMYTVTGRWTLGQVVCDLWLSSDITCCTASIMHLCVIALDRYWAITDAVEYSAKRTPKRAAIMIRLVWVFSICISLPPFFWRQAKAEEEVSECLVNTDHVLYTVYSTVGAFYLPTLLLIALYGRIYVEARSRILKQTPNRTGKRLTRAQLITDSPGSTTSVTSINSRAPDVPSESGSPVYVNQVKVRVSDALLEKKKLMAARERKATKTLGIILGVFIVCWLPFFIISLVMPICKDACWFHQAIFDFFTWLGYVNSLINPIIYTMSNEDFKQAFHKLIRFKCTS

SMILES: CN(C)CCc1c[nH]c2ccc(Cc3nc(N)no3)cc12 [Example 30, N,N-Dimethyl-2-[5-[5-(3-Amino-1,2,4-oxadiazol)ylmethyl]-1H-indol-3-yl]ethylamine]
EC50: ≤ 10 µM

SMILES: NCCc1c[nH]c2ccc(-c3nc(Cc4ccccc4)no3)cc12 [Example 1, 2-[5-(5-(3-Benzyl-1,2,4-oxadiazol)-yl)-1H-indol-3-yl]ethylamine]
EC50: ≤ 10 µM

SMILES: CN(C)CCc1c[nH]c2ccc(-c3nc(Cc4ccc(NC(N)=O)cc4)no3)cc12 [Example 52, N,N-Dimethyl-2[5-(5-(3-(4-carbamoylaminobenzyl)-1,2,4-oxadiazol)yl)-1H-indol-3-yl]ethylamine]
EC50: ≤ 10 µM

SMILES: CN(C)CCc1c[nH]c2ccc(-c3nc(CCNC(=O)OC(C)(C)C)no3)cc12 [Example 53, N,N-dimethyl-2-[5-(5-(3-(2-t-butyloxycarbonylamino)ethyl-1,2,4-oxadiazol)yl)-1H-indol-3-yl]ethylamine]
EC50: ≤ 10 µM

SMILES: NCCc1c[nH]c2ccc(-c3nc(N)no3)cc12 [Example 45, 2-[5-(5-(3-Amino-1,2,4-oxadiazol)-yl)-1H-indol-3-yl]ethylamine]
EC50: ≤ 10 µM

SMILES: CN(C)CCc1c[nH]c2ccc(-c3nc(Cc4ccc(NS(C)(=O)=O)cc4)no3)cc12 [Example 28, N,N-Dimethyl-2-[5-[5-(3-(4-Methylsulphonylaminobenzyl)-1,2,4-oxadiazol)yl]-1H-indol-3-yl]ethyl amine]
agonist potency -log10 EC50 (pEC50) [1]: not less than 5.0

EC50 (rabbit saphenous vein contraction, from plots of percentage 5-HT (1 μm) response against agonist concentration, read-out: agonist potency -log10 EC50 (pEC50) (converted)): ≤ 10 µM
SMILES: CN1CCC(c2c[nH]c3ccc(Cc4nc(N)no4)cc23)CC1 [Example 110, 4-[5-(3-Amino-1,2,4-oxadiazol-5-ylmethyl)-1H-indol-3-yl]N-methylpiperidine]

SMILES: CN(C)CCc1c[nH]c2ccc(-c3nc(CCNS(C)(=O)=O)no3)cc12 [Example 56, N,N-dimethyl-2-[5-(5-(3-(2-methylsulphonylamino)ethyl-1,2,4-oxadiazol)yl)-1H-indol-3-yl]ethylamine]
EC50: ≤ 10 µM

SMILES: NCCc1c[nH]c2ccc(Cc3nc(N)no3)cc12 [Example 6]
EC50: ≤ 10 µM

SMILES: CN(C)CCc1c[nH]c2ccc(CCc3nc(N)no3)cc12 [Example 61, N,N-Dimethyl-2-[5-(2-(5-(3-amino-1,2,4-oxadiazol)yl)ethyl)-1H-indol-3-yl]ethylamine]
agonist potency -log10 EC50 (pEC50) [1]: not less than 5.0

SMILES: CNS(=O)(=O)c1ccc(Cc2noc(Cc3ccc4[nH]cc(CCN(C)C)c4c3)n2)cc1 [Example 65, N,N-Dimethyl-2-[5-(5-(3-(4-methylaminosulphonylbenzyl)-1,2,4-oxadiazol)ylmethyl)-1H-indol-3-yl]ethylamine]
EC50: ≤ 10 µM

SMILES: NCCc1c[nH]c2ccc(Cc3nc(Cc4ccccc4)no3)cc12 [Example 4]
EC50: ≤ 10 µM

SMILES: CN(C)CCc1c[nH]c2ccc(Cc3nc(N4CCN(C(=O)OC(C)(C)C)CC4)no3)cc12 [Example 93, N,N-Dimethyl-2-[5-(5-(3-(4-^t-butyloxycarbonyl)piperazine-1,4-yl-1,2,4-oxadiazol)ylmethyl)-1H-indol-3-yl]ethylamine]
EC50: ≤ 10 µM

SMILES: CC(=O)Nc1ccc(Cc2noc(-c3ccc4[nH]cc(CCN(C)C)c4c3)n2)cc1 [Example 27, N,N-Dimethyl-2-[5-[5-(3-(4-Acetylaminobenzyl)-1,2,4-oxadiazol)yl]-1H-indol-3-yl]ethylamine]
EC50: ≤ 10 µM

SMILES: CN(C)CCc1c[nH]c2ccc(-c3nc(N)no3)cc12 [Example 49, N,N-Dimethyl-2-[5-(5-(3-amino-1,2,4-oxadiazol)yl)-1H-indol-3yl]ethylamine]
EC50: ≤ 10 µM

SMILES: CN(C)CCc1c[nH]c2ccc(Cc3nc(CNC(=O)c4ccccc4)no3)cc12 [Example 88, N,N-Dimethyl-2-[5-(5-(3-phenylcarboxamidomethyl-1,2,4-oxadiazol)ylmethyl)-1H-indol-3-yl]ethylamine]
EC50: ≤ 10 µM

SMILES: NCCc1c[nH]c2ccc(-c3nc(Cc4ccc(NC(N)=O)cc4)no3)cc12 [Example 44, 2-[5-(5-(3-(4-Carbamoylaminobenzyl)-1,2,4-oxadiazol)yl)-1H-indol-3-yl]ethylamine]
EC50: ≤ 10 µM

Source: patent US5317103A, “Indole-substituted five-membered heteroaromatic compounds as 5-HT1 agonists” (Merck Sharp & Dohme Limited, priority 1992, dated 1994)
